{"source": "patent US20070161547A1", "about": "“Modulation of survivin expression” (priority 2003, published 2007)", "note": "Oligonucleotides are written 5' to 3', each unit as a sugar letter and its base; * is a phosphorothioate linkage, no mark a phosphodiester; rarer units and linkages stand in square brackets, end groups in braces. Plain capitals give the bases only. e = 2'-O-(2-methoxyethyl) (MOE); m = 2'-O-methyl; r = 2'-OH (RNA)"}
{"tested_on": "human survivin mRNA", "test": "Inhibition of human survivin mRNA expression in HeLa cells, real-time quantitative PCR", "format": "cell-based", "settings": "Table 11; 0.2 nM; 16 h; averages from two experiments", "outline": "(§1)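 Percent inhibition of survivin mRNA after antisense oligonucleotide treatment of HeLa cells, from a standard curve built on serially diluted untreated-control mRNA. Quantitation by TaqMan real-time RT-PCR with survivin-specific FAM/TAMRA probe and primers; GAPDH probed with JOE/TAMRA.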", "units": {"Percentage of Inhibition of survivin expression in HeLa cells": "%"}}
{"substance": "339048_346294 (antisense AUUUGAAAAUGUUGAUCUCC; sense rA*rGrG*rArG*rArU*rCrA*rArC*rArU*rUrU*rUrC*rArA*rA; siRNA; antisense: unmodified RNA)", "Percentage of Inhibition of survivin expression in HeLa cells": 39}
{"tested_on": "human survivin mRNA", "test": "Inhibition of human survivin mRNA expression in HeLa cells, real-time quantitative PCR", "format": "cell-based", "settings": "Table 11; 2.0 nM; 16 h; averages from two experiments", "outline": "as §1", "units": {"Percentage of Inhibition of survivin expression in HeLa cells": "%"}}
{"substance": "339048_346294 (antisense AUUUGAAAAUGUUGAUCUCC; sense rA*rGrG*rArG*rArU*rCrA*rArC*rArU*rUrU*rUrC*rArA*rA; siRNA; antisense: unmodified RNA)", "Percentage of Inhibition of survivin expression in HeLa cells": 65}
{"tested_on": "human survivin mRNA", "test": "Inhibition of human survivin mRNA expression in HeLa cells, real-time quantitative PCR", "format": "cell-based", "settings": "Table 11; 20.0 nM; 16 h; averages from two experiments", "outline": "as §1", "units": {"Percentage of Inhibition of survivin expression in HeLa cells": "%"}}
{"substance": "339048_346294 (antisense AUUUGAAAAUGUUGAUCUCC; sense rA*rGrG*rArG*rArU*rCrA*rArC*rArU*rUrU*rUrC*rArA*rA; siRNA; antisense: unmodified RNA)", "Percentage of Inhibition of survivin expression in HeLa cells": 85}
{"tested_on": "human survivin mRNA", "test": "IC50 of dsRNA for survivin mRNA, dose response by quantitative RT-PCR (\"D\")", "format": "cell-based", "settings": "D (dose response, mRNA levels), HeLa cells; read-out: IC50", "procedure": "(§2) Representative parameters that can be studied include, for example, translation of survivin mRNAs or survivin protein synthesis; effect on surrogate markers; or any other parameter that is indicative of potential dsRNA therapeutic effectiveness that can be conveniently measured in vitro.\n(§3) For western blot analysis, cells are plated in 10 cm tissue culture dishes (Falcon, #3003) at a density of 7.5×10^5 cells/dish. For RT-PCR analysis, 96-well plates (Corning Incorporated, #3596) are plated with 1×10^4 cells/well. Lipofectin (GIBCO/Invitrogen) transfection reagent is used at a concentration of 3 ul/ml OPTIMEM reduced serum medium (Gibco/Invitrogen)/100 nM siRNA duplex. Lipofectin reagent is incubated with OPTIMEM medium for 30 minutes prior to the addition of siRNA. The desired amount of siRNA is added and mixed. Further 1:1 dilutions are performed in OPTIMEM. Cells are washed twice with 1× phosphate buffered saline and then treated with the siRNA/Lipofectin mixture in OPTIMEM. After a 4 hr incubation period, OPTIMEM medium is replaced with complete growth medium. Cells are harvested after additional 16-20 hrs for Western blot or RT-PCR analysis.\n(§4) Total RNA is isolated using RNeasy® 96 kit according to recommended protocol (Qiagen). Briefly, cells are washed with 200 ul PBS after removal of growth medium. Following washing, 100 μl buffer RLT is added, plate is shaken vigorously for about 20 seconds. To each well 100 μl 70% ethanol are added and mixed by pipetting up and down three times. Samples are then applied into the wells of the RNeasy 96 plate placed in the QIAvac top base of the QIAvac 96 manifold, which is attached to a vacuum source. Vacuum is applied for 30 seconds or until transfer is complete. To each well 80 μl of DNase I incubation mix (20 mM Tris-HCl, pH 8.4, 2 mM MgCl2, 50 mM KCl and 225 Units/ml DNase I from Invitrogen) is added and incubated at room temperature for 30 minutes. Buffer RW1 (1 ml/well) is added and the vacuum is applied for 30 seconds. Buffer RPE (1 ml/well) is added to each well and vacuum is applied for 30 seconds. Washing steps with buffer RW1 and RPE1 are repeated once more. The plate is then removed from the manifold and blotted dry on paper towels. The plate is placed back in the QIAvac manifold and the vacuum is applied for 10 minutes. To elute RNA 30 μl of RNase-free water is added directly onto the membrane of each well, incubated for 1 minutes and vacuum is applied for 30 seconds. In order to maximize the recovery of total RNA the elution step is repeated with additional 30 μl/well RNase-free water.\n(§5) Quantitation of survivin and GAPDH mRNA levels is determined by real-time quantitative RT-PCR using the ABI PRISM® 7900 Sequence Detection System (Applied Biosystems). RT-PCR reactions are carried out by adding 15 ul of TaqMan One Step PCR Master Mix (Applied Biosystems, #4309169) reagents (containing 100 nM each of forward primer and reverse primer, and 200 nM probe) to 96-well plates with 10 μl total RNA. For human survivin, the forward PCR primer is: 5′[…]3′ (SEQ ID NO: 186), and the reverse primer is: 5′[…]3′ (SEQ ID NO: 187). The survivin TaqMan® probe used is 5′(FAM)[…]3′ (SEQ ID NO: 188) (Biosearch Technologies, Inc.). This primer-probe set, designed to SEQ ID No 14 was used for all experiments in Examples 15 to the end. For human GAPDH, TaqMan GAPDH Control Reagent Kit is used (Applied Biosystems, #402869). The percentage inhibition for each samples are calculated by comparing the survivin/GAPDH mRNA ratio for the sample to survivin/GAPDH mRNA ratio for the untreated control. The IC50 is derived from the non-linear regression analysis of the percentage inhibition data using GraphPad Prism software (GraphPad Software).\n(§6) The constructs tested comprise the antisense strand in the 5′-3′ orientation, and the sense strand in the 5′ to 3′ orientation, In Table 15, “D” is dose response (mRNA levels) and “W” is Western blot. […]", "units": {"IC50": "nM"}}
{"substance": "339048_346294 (antisense AUUUGAAAAUGUUGAUCUCC; sense rA*rGrG*rArG*rArU*rCrA*rArC*rArU*rUrU*rUrC*rArA*rA; siRNA; antisense: unmodified RNA)", "IC50": 0.24}
{"tested_on": "human survivin mRNA", "test": "IC50 of dsRNA for survivin mRNA, dose response by quantitative RT-PCR (\"D\")", "format": "cell-based", "settings": "Table 16; cell line not given; read-out: IC50 (nM) mRNA, dsRNA to human survivin", "procedure": "as §2, §3, §4, §5, §6", "units": {"IC50": "nM"}}
{"substance": "ISIS 346284_346287: blunt-ended siRNA 19 PO-PS/PS: antisense 346284, sense 346287 (antisense rUrU*rUrG*rArA*rArA*rUrG*rUrU*rGrA*rUrC*rUrC*rC; sense rG*rG*rA*rG*rA*rU*rC*rA*rA*rC*rA*rU*rU*rU*rU*rC*rA*rA*rA)", "IC50": 3.24}
{"substance": "ISIS 352506_352514: blunt-ended siRNA duplex: antisense 352506, sense 352514 (antisense mUrUrUrGrAmAmArArUmGrUrUrGrArUrCmUmCmC; sense GGAGAUCAACAUUUUCAAA; sense: sugars from the 5' end rererererererererer, all phosphodiester, methylation of C and T or U not given here)", "IC50": 0.12}
{"substance": "ISIS 352507_346287: dsRNA duplex: antisense 352507, sense 346287 (antisense mUrUmUrGmArAmArAmUrGmUrUmGrAmUrCmUrCmC; sense rG*rG*rA*rG*rA*rU*rC*rA*rA*rC*rA*rU*rU*rU*rU*rC*rA*rA*rA)", "IC50": 0.8}
{"substance": "ISIS 352507_352511: blunt-ended siRNA duplex: antisense 352507, sense 352511 (antisense mUrUmUrGmArAmArAmUrGmUrUmGrAmUrCmUrCmC; sense GGAGAUCAACAUUUUCAAA; sense: all phosphodiester, sugars by position and methylation of C not given here; further chemistry not fully specified)", "IC50": 0.24}
{"substance": "ISIS 352507_352512: blunt-ended siRNA duplex: antisense 352507, sense 352512 (antisense mUrUmUrGmArAmArAmUrGmUrUmGrAmUrCmUrCmC; sense mGmGmAmGmAmUmCmAmAmCmAmUmUmUmUmCmAmAmA)", "IC50": 0.04}
{"substance": "ISIS 352507_352514: blunt-ended siRNA duplex: antisense 352507, sense 352514 (antisense mUrUmUrGmArAmArAmUrGmUrUmGrAmUrCmUrCmC; sense GGAGAUCAACAUUUUCAAA; sense: sugars from the 5' end rererererererererer, all phosphodiester, methylation of C and T or U not given here)", "IC50": 0.21}
{"substance": "ISIS 353538_343868: dsRNA duplex: antisense 353538 (4'-thio), sense 343868 (unmodified) (antisense UUUGAAAAUGUUGAUCUCC; sense GGAGAUCAACAUUUUCAAA; antisense: all phosphodiester, sugars by position and methylation of C not given here; sense: RNA, phosphodiester; antisense has 4'-thioribose at some positions, positions stated inconsistently, further chemistry not fully specified)", "IC50": 0.16}
{"substance": "ISIS 353539_343868: dsRNA duplex: antisense 353539, sense 343868 (antisense UUUGAAAAUGUUGAUCUCC; sense GGAGAUCAACAUUUUCAAA; chemical modifications, chemistry not fully specified)", "IC50": 0.13}
{"substance": "ISIS 353540_343868: dsRNA duplex: antisense 353540, sense 343868 (antisense UUUGAAAAUGUUGAUCUCC; sense GGAGAUCAACAUUUUCAAA; chemical modifications, chemistry not fully specified)", "IC50": 0.11}
{"substance": "ISIS 355710_343868: dsRNA duplex: antisense 355710, sense 343868 (antisense UUUGAAAAUGUUGAUCUCC; sense GGAGAUCAACAUUUUCAAA; chemical modifications, chemistry not fully specified)", "IC50": 0.1}
{"tested_on": "survivin protein", "test": "IC50 of dsRNA for survivin protein, quantitative Western blot (\"W\")", "format": "cell-based, human", "settings": "W (Western blot), HeLa cells", "procedure": "Western blot analysis (immunoblot analysis) is carried out using standard methods. Cells are harvested 16-20 hours after oligonucleotide treatment, washed once with PBS, suspended in Laemmli buffer (100 μl/well), boiled for 5 minutes and loaded on a 16% SDS-PAGE gel. Gels are run for 1.5 hours at 150 V, and transferred to membrane for western blotting. Appropriate primary antibody directed to survivin is used, with a radiolabelled or fluorescently labeled secondary antibody directed against the primary antibody species. Bands are visualized using a PHOSPHORIMAGER™ (Molecular Dynamics, Sunnyvale, Calif.).\nas §3\nAt the end of the incubation period culture medium is removed and cells are washed twice with PBS. Cells are lysed in RIPA buffer (20 mM Tris-HCl, pH 7.4, 5 mM EDTA, 50 mM NaCl, 10 mM Sodium Pyrophosphate, 50 mM Sodium Fluoride, and 1% Nonidet P40) plus Complete™ Mini protease inhibitor tablets (Roche, #1836153) and 1 mM Sodium orthovanadate (Sigma) by directly adding buffer to the plate. Lysates are collected by scrapping, transferred to microfuge tubes and cleared from the cellular debris by centrifugation at 14,000 rpm for 30 minutes at 4° C. Protein concentrations are determined using BCA protein assay yeagents (Pierce). Total cellular protein is subjected to SDS-PAGE and transferred onto Immobilon-P membranes (Millipore, #IPVHO91). Membranes are probed with primary antibodies to survivin (R&D Systems, #AF886) and to β-Actin (Sigma, #A5441). Horseradish peroxidase linked Anti-rabbit Ig, and anti-mouse Ig, antibodies (Pharmacia) are used as secondary antibodies. Antigen-antibody complexes are visualized by incubation of membrane in SuperSigmal West Pico chemiluminescence reagents (Pierce) for 5 minutes followed by capturing of the chemiluminescence using Fluor-S imager (Biorad) equipped with the cool CCD camera. The protein bands of interest for each sample are quantified using Quantity One software (Biorad). The percentage inhibition for each samples are calculated by comparing the survivin/Actin protein ratio for the sample to survivin/Actin protein ratio for the untreated control. The IC50 is derived from the non-linear regression analysis of the percentage inhibition data using GraphPad Prism software (GraphPad Software).\nThe constructs tested comprise the antisense strand in the 5′-3′ orientation, and the sense strand in the 5′ to 3′ orientation, In Table 15, “D” is dose response (mRNA levels) and “W” is Western blot. All internucleoside linkages are phosphodiester unless otherwise noted by a lowercase “s” indicating a phosphorothioate linkage.", "units": {"IC50": "nM"}}
{"substance": "339044_339074 (antisense AGGGCUGCCAGGCAGGGGGC; sense GCCCCUGCCUGGCAGCCCU; siRNA; listed as RNA, chemistry not fully specified)", "IC50": 5.3}
{"substance": "339046_339076 (antisense AACCCUGGAAGUGGUGCAGC; sense GCUGCACCACUUCCAGGGUU; siRNA; unmodified RNA)", "IC50": 3.5}
{"substance": "339049_339079 (antisense AGCACAGUUGAAACAUCUAA; sense UUAGAUGUUUCAACUGUGCU; siRNA; unmodified RNA)", "IC50": 6.12}
{"substance": "339050_339080 (antisense AGAAGCACCUCUGGUGCCAC; sense GUGGCACCAGAGGUGCUUCU; siRNA; unmodified RNA)", "IC50": "≥ 100"}
{"substance": "339051_339081 (antisense UCCCUCACUUCUCACCUGGU; sense ACCAGGUGAGAAGUGAGGGA; siRNA; unmodified RNA)", "IC50": "≥ 100"}
{"substance": "339054_339084 (antisense CAACAUGAGGUCCAGACACA; sense UGUGUCUGGACCUCAUGUUG; siRNA; unmodified RNA)", "IC50": "≥ 100"}
